Test results published in patent US8541394B2, “Aminoglycoside antibiotics” (Meiji Seika Pharma Co., Ltd., priority 2006, dated 2013).
≈ marks a conversion by molar mass, not a printed value.

Experiments:
[1] = system: kidney of normal mice; details: mouse, in vivo; for Amount of NAG in urine: ip, 120 mg/kg/day
Experimental: An evaluation system of influence on the kidney was constructed based on renal disease model preparation method using gentamicin (KIDNEY AND DIALYSIS, Vol. 31, 1991, extra edition, “Renal Disease Model”, p. 423 “Drug-induced Renal Damage and its Examination Method,” Kidney and Dialysis Editorial Committee, published by TOKYOIGAKUSYA). The influence of the compound represented by formula (I) produced in Example 1 on the kidney was evaluated using this evaluation system. A physiological saline administration group and an arbekacin administration group were set as control groups. Each group consisted of four mice (Crj: CD-1 (ICR) female mice of eight weeks old).
In the above evaluation system, the evaluation of nephrotoxicity was carried out using NAG as an index. NAG exists in lysosome in each tissue of humans and animals, is an enzyme, which converts a mucopolysaccharide to a glycoprotein, for example, converts β-N-acetyl-D-glucosaminide to β-N-acetyl-D-glucosamine, and is plentifully present in proximal uriniferous tubule epithelial cells of the kidney in which aminoglycoside antibiotics are particularly accumulated. When the kidney, especially its proximal uriniferous tubule is damaged, NAG is released into urine to increase the amount of NAG in the urine. Accordingly, the increase in the amount of NAG in urine is considered to reflect proximal uriniferous tubule damage and is adopted as one of biochemical markers for estimating the level of renal insufficiency in clinical test items. The amount of NAG is measured by an examination method, for example, an MCP-NAG method (Outline of Latest Internal Medicine, Vol. 4, Clinical Laboratory—Kensa No Susumekata To Deta No Yomikata (How To Forward Examination and How To Read Data)—<Naika Soron 4 (General Remarks Of Internal Medicine 4> p. 274, Imura et al. (ed.), published by Nakayama Syoten Co., Ltd., 1994).
A solution of physiological saline of the compound according to the present invention having a concentration of 12 mg/mL was administered to the mice in each group at a dose of 120 mg/kg/day (in two divided doses; morning and afternoon) for 4 days by repeated intraperitoneal administration. Naturally excreted urine was collected for about 24 hr from the completion of the administration in the morning on day 4, and the amount of NAG in the urine was measured by the MCP-NAG method. The same treatment was carried out for the physiological saline administration group and the arbekacin administration group.
The influence of arbekacin and an arbekacin analogue TS2037 (5,4″-diepiarbekacin) produced according to the description of WO 2005/070945 on the kidney was evaluated in the same manner as in Test Example 3. […]

[2] = system: clinically isolated MRSA strain, which has high resistance to arbekacin; test: Antimicrobial activity (MIC), agar plate dilution method, MRSA with high resistance to arbekacin; assay type: cell-based, methicillin-resistant Staphylococcus aureus (MRSA); details: Staphylococcus aureus, different from Test Example 1
[3] = system: clinically isolated MRSA strain (n=9), which has low sensitivity to arbekacin; test: Antimicrobial activity (MIC), agar plate dilution method, MRSA with low sensitivity to arbekacin; assay type: cell-based, methicillin-resistant Staphylococcus aureus (MRSA); details: Staphylococcus aureus, clinically isolated MRSA strain (n=9) with low sensitivity to arbekacin, read-out: minimal inhibitory concentration (MIC)
Experimental: MIC of the compound represented by formula (I) produced in Example 1 against an MRSA strain, specifically a clinically isolated MRSA strain (n=9), which has low sensitivity to arbekacin and against which the minimal inhibitory concentration (MIC, μg/mL) is 4 to 8, was measured by an agar plate dilution method according to the standard method of Japan Society of Chemotherapy (Chemotherapy, Vol. 29, pp. 76 to 79, 1981).

[4] = system: proximal uriniferous tubule epithelial cells of the kidney of pigs; details: pig kidney proximal uriniferous tubule epithelial cells; compared with arbekacin; 44th ICAAC (2004) subject No. F-716; cited from earlier work

| amount of NAG in the urine [1] [mIU] | Amount of NAG in urine [1] [mIU] | MIC [2] [µg/mL] | MIC [3] [µg/mL] | SMILES | nephrotoxicity using NAG as an index [4] |
| --- | --- | --- | --- | --- | --- |
| 168.5 | 135.0 | 128 (≈ 232 µM) | 4 to 8 (≈ 7.24 to 14.5 µM) | NCC[C@H](O)C(=O)N[C@@H]1C[C@H](N)[C@@H](O[C@H]2O[C@H](CN)CC[C@H]2N)[C@H](O)[C@H]1O[C@H]1O[C@H](CO)[C@@H](O)[C@H](N)[C@H]1O [Arbekacin, (S)-1-N-(4-amino-2-hydroxybutyryl)dibekacin] |  |
| 358.8 |  |  |  | NCC[C@H](O)C(=O)NC1C[C@H](N)C(O[C@H]2OC(CN)CCC2N)C(O)[C@H]1O[C@H]1OC(CO)[C@H](O)C(N)C1O (some centres unmarked) [TS2037, 5,4″-diepiarbekacin] | higher than that of arbekacin |
|  | 74.7 |  | 0.5 to 2 | NCC[C@H](O)C(=O)NC1C(O)[C@H](N)C(O[C@H]2OC(CN)CCC2N)C(O)[C@H]1O[C@H]1OC(CO)[C@@H](O)C(N)C1O (stereo in doubt) [Compound represented by formula (I), 2-Hydroxyarbekacin] |  |
